Data on 32 compounds can be found in patent US8361998B2, “Compounds and their use as IKACh blockers” (AstraZeneca AB, priority 2010, dated 2013).

This test addresses T1, human cardiac ion channel proteins hKir3.1/Kir3.4 (Homo sapiens, UniProt P48544+P48549).
T1 construct: expressed in transfected cells
T1 sequence (P48549 1-501): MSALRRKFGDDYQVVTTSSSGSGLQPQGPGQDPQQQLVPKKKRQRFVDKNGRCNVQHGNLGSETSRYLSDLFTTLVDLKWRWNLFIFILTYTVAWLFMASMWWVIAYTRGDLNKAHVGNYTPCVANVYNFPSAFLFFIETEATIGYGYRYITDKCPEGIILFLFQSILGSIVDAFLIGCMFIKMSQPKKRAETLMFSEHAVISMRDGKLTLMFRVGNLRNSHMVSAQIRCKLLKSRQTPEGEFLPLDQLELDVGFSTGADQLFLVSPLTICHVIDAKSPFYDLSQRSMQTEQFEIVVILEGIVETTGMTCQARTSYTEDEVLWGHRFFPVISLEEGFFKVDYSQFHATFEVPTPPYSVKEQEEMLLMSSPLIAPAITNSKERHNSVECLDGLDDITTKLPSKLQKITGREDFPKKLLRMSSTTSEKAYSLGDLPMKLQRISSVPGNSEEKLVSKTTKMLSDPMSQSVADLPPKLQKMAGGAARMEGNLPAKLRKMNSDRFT
T1 sequence (P48544 1-419): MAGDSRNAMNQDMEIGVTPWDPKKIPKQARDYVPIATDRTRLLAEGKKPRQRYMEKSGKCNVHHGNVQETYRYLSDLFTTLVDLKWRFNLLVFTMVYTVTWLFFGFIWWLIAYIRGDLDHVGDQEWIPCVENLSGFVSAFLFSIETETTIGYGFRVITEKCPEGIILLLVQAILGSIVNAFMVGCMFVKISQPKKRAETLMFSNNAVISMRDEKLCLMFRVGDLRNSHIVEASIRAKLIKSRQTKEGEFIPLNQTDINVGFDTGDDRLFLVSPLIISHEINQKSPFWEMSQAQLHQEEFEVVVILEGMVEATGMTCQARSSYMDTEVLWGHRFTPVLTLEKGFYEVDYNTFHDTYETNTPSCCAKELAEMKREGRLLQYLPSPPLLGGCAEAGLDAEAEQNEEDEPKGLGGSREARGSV
The test is described as follows: Atomic Absorption Screening (AAS) Rb efflux assay of hKir3.1/Kir3.4 block, carbachol/high K+ stimulated, 10-pt or 7-pt CR. Format: cell-based. The conditions noted are these: 10-pt CR (0.003 to 67 μmol/L), AAS Rb efflux, CHO-K1 cells expressing hKir3.1/Kir3.4; mean of >4 replicates; read-out: IKACh IC50 10-pt CR, AAS. Summed up: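 CHO-K1 cells stably co-expressing human Kir3.1/Kir3.4 were Rb-loaded for 3 h at 37° C, preincubated with compound 5 min at RT, then stimulated 10 min with 10 μM carbachol plus 20 mM KCl (final). Supernatant Rb was measured by atomic absorption. Compounds ran at 0.003–67 μmol/L (10-pt) or 0.037–27 μmol/L (7-pt), threefold dilutions; IC50s are means of >4 or >3 replicates respectively.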

Turning to `CC[C@H](C)[C@@H](CN1CC(O)C1)N(C)C(=O)c1ccc(Cl)cc1` [Example 29.2, 4-Chloro-N-((2S,3S)-1-(3-hydroxyazetidin-1-yl)-3-methylpentan-2-yl)-N-methylbenzamide], the IC50 came out at 0.16 µM.
The same measure for `CCc1ccc(C(=O)N(C)[C@H](CN2CC(O)C2)[C@@H](C)CC)cc1` [Example 29.3, 4-Ethyl-N-((2S,3S)-1-(3-hydroxyazetidin-1-yl)-3-methylpentan-2-yl)-N-methylbenzamide]: 0.22 µM.
The same measure for `CC[C@H](C)[C@@H](CN1CC(O)C1)N(C)C(=O)c1ccccc1` [Example 29.4, N-((2S,3S)-1-(3-Hydroxyazetidin-1-yl)-3-methylpentan-2-yl)-N-methylbenzamide]: 12 µM.
The same measure for `CC[C@H](C)[C@@H](CN1CC(O)C1)N(C)C(=O)c1ccc(C#N)cc1` [Example 29.5, 4-Cyano-N-((2S,3S)-1-(3-hydroxyazetidin-1-yl)-3-methylpentan-2-yl)-N-methylbenzamide]: 12 µM; for `CC[C@H](C)[C@@H](CN1CC(O)C1)N(C)C(=O)c1ccc(OC)cc1` [Example 29.6, N-((2S,3S)-1-(3-Hydroxyazetidin-1-yl)-3-methylpentan-2-yl)-4-methoxy-N-methylbenzamide]: 1.6 µM.
Turning to `CC[C@H](C)[C@@H](CN1CC(O)C1)N(C)C(=O)c1cc(C)ccc1OC` [Example 29.8, N-((2S,3S)-1-(3-Hydroxyazetidin-1-yl)-3-methylpentan-2-yl)-2-methoxy-N,5-dimethylbenzamide], the IC50 is 11 µM.
For `CC[C@H](C)[C@@H](CN1CC(O)C1)N(C)C(=O)c1cc(Cl)ccc1OC` [Example 29.9, 5-Chloro-N-((2S,3S)-1-(3-hydroxyazetidin-1-yl)-3-methylpentan-2-yl)-2-methoxy-N-methylbenzamide], the IC50 turned out to be 16 µM.
The same measure for `CO[C@H](C)[C@@H](CN1CC(O)C1)N(C)C(=O)c1ccc(Cl)cc1` [Example 30, 4-Chloro-N-((2R,3R)-1-(3-hydroxyazetidin-1-yl)-3-methoxybutan-2-yl)-N-methylbenzamide]: 6.3 µM; for `CCC[C@@H](CN1CC(OCC)C1)N(C)C(=O)c1ccc(Cl)cc1` [Example 31.1, (S)-4-Chloro-N-(1-(3-ethoxyazetidin-1-yl)pentan-2-yl)-N-methylbenzamide]: 0.43 µM.
For the compound `CCC[C@@H](CN1CC(OC)C1)N(C)C(=O)c1ccc(Cl)cc1` [Example 31.2, (S)-4-Chloro-N-(1-(3-methoxyazetidin-1-yl)pentan-2-yl)-N-methylbenzamide], the IC50 turned out to be 5.9 µM.
Regarding `CCC[C@@H](CN1CC(OCC#N)C1)N(C)C(=O)c1ccc(Cl)cc1` [Example 31.3, 4-chloro-N-{(2S)-1-[3-(cyanomethoxy)azetidin-1-yl]pentan-2-yl}-N-methylbenzamide], the IC50 was 1.7 µM.
The same measure for `CCC[C@@H](CN1CC(OC(C)C)C1)N(C)C(=O)c1ccc(Cl)cc1` [Example 31.4, 4-chloro-N-methyl-N-{(25)-1-[3-(propan-2-yloxy)azetidin-1-yl]pentan-2-yl}benzamide]: 0.33 µM; for `CCCC[C@@H](CN1CC(O)C1)N(C)C(=O)c1ccc(Cl)cc1` [Example 33.1, (S)-4-chloro-N-(1-(3-hydroxyazetidin-1-yl)hexan-2-yl)-N-methylbenzamide]: 0.12 µM.
The same measure for `CCCC[C@@H](CN1CC(O)C1)N(C)C(=O)c1ccc(F)c(F)c1` [Example 33.2, 3,4-Difluoro-N-[(2S)-1-(3-hydroxyazetidin-1-yl)hexan-2-yl]-N-methylbenzamide]: 0.32 µM; for `CCCC[C@@H](CN1CC(O)C1)N(C)C(=O)c1ccc(C#N)cc1F` [Example 33.3, 4-Cyano-2-fluoro-N-[(2S)-1-(3-hydroxyazetidin-1-yl)hexan-2-yl]-N-methylbenzamide]: 0.84 µM.
The same measure for `CCCC[C@@H](CN1CC(O)C1)N(C)C(=O)c1ccccc1` [Example 33.5, N-[(2S)-1-(3-Hydroxyazetidin-1-yl)hexan-2-yl]-N-methylbenzamide]: 1 µM.
On to `CCCC[C@@H](CN1CC(O)C1)N(C)C(=O)c1ccc(O)cc1` [Example 33.6, 4-Hydroxy-N-[(2S)-1-(3-hydroxyazetidin-1-yl)hexan-2-yl]-N-methylbenzamide], for which the IC50 is 11 µM.
The same measure for `CCCC[C@@H](CN1CC(O)C1)N(C)C(=O)c1ccc(F)c(Cl)c1` [Example 33.8, 3-Chloro-4-fluoro-N-[(2S)-1-(3-hydroxyazetidin-1-yl)hexan-2-yl]-N-methylbenzamide]: 0.16 µM.
The same measure for `CCCC[C@@H](CN1CC(O)C1)N(C)C(=O)c1cc(F)ccc1F` [Example 33.9, 2,5-Difluoro-N-[(2S)-1-(3-hydroxyazetidin-1-yl)hexan-2-yl]-N-methylbenzamide]: 4.3 µM.
As to `CCCC[C@@H](CN1CC(O)C1)N(C)C(=O)c1cccc(C(F)F)c1` [Example 33.10, 3-(Difluoromethyl)-N-[(2S)-1-(3-hydroxyazetidin-1-yl)hexan-2-yl]-N-methylbenzamide], the IC50 was found to be 1.1 µM.
Regarding `CCC[C@@H](CN1CC(O)C1)N(C(=O)c1ccc(Cl)cc1)C(C)C` [Example 34.1, 4-Chloro-N-[(2S)-1-(3-hydroxyazetidin-1-yl)pentan-2-yl]-N-(propan-2-yl)benzamide], the IC50 was determined as 3.3 µM.
Turning to `CCC[C@@H](CN1CC(O)C1)N(C(=O)c1ccc(F)c(F)c1)C(C)C` [Example 34.2, 3,4-Difluoro-N-[(2S)-1-(3-hydroxyazetidin-1-yl)pentan-2-yl]-N-(propan-2-yl)benzamide], the IC50 stood at 11 µM.
The same measure for `CN(C(=O)c1ccc(Cl)cc1)[C@@H](CN1CC(O)C1)C1CCC1` [Example 35.1, 4-Chloro-N-[(1R)-1-cyclobutyl-2-(3-hydroxyazetidin-1-yl)ethyl]-N-methylbenzamide]: 3.4 µM; for `CN(C(=O)c1ccc(C#N)cc1)[C@@H](CN1CC(O)C1)C1CCC1` [Example 35.2, 4-Cyano-N-[(1R)-1-cyclobutyl-2-(3-hydroxyazetidin-1-yl)ethyl]-N-methylbenzamide]: 14 µM; for `CN(C(=O)c1ccc(OC(F)F)cc1)[C@@H](CN1CC(O)C1)C1CCC1` [Example 35.3, N-[(1R)-1-Cyclobutyl-2-(3-hydroxyazetidin-1-yl)ethyl]-4-(difluoromethoxy)-N-methylbenzamide]: 8.7 µM.
The same measure for `Cc1cc(C(=O)N(C)[C@@H](CN2CC(O)C2)C2CCC2)ccc1F` [Example 35.4, N-[(1R)-1-Cyclobutyl-2-(3-hydroxyazetidin-1-yl)ethyl]-4-fluoro-N,3-dimethylbenzamide]: 0.66 µM.
The same measure for `CN(C(=O)c1ccc(F)cc1)[C@@H](CN1CC(O)C1)C1CCC1` [Example 35.5, N-[(1R)-1-Cyclobutyl-2-(3-hydroxyazetidin-1-yl)ethyl]-4-fluoro-N-methylbenzamide]: 11 µM; for `CN(C(=O)c1ccc(F)cc1Cl)[C@@H](CN1CC(O)C1)C1CCC1` [Example 35.6, 2-Chloro-N-[(1R)-1-cyclobutyl-2-(3-hydroxyazetidin-1-yl)ethyl]-4-fluoro-N-methylbenzamide]: 4.6 µM.
Consider `CN(C(=O)c1ccc(F)c(F)c1)[C@@H](CN1CC(O)C1)C1CCC1` [Example 35.7, N-[(1R)-1-Cyclobutyl-2-(3-hydroxyazetidin-1-yl)ethyl]-3,4-difluoro-N-methylbenzamide], for which the IC50 was 3.9 µM.
Consider `CN(C(=O)c1cccc(C(F)F)c1)[C@@H](CN1CC(O)C1)C1CCC1` [Example 35.8, N-[(1R)-1-Cyclobutyl-2-(3-hydroxyazetidin-1-yl)ethyl]-3-(difluoromethyl)-N-methylbenzamide], for which the IC50 is 8 µM.
For `CN(C(=O)c1ccc(F)c(C#N)c1)[C@@H](CN1CC(O)C1)C1CCC1` [Example 35.9, 3-Cyano-N-[(1R)-1-cyclobutyl-2-(3-hydroxyazetidin-1-yl)ethyl]-4-fluoro-N-methylbenzamide], the IC50 came to 4.6 µM.
On to `CN(C(=O)c1ccc(F)cc1F)[C@@H](CN1CC(O)C1)C1CCC1` [Example 35.10, N-[(1R)-1-Cyclobutyl-2-(3-hydroxyazetidin-1-yl)ethyl]-2,4-difluoro-N-methylbenzamide], for which the IC50 is 15 µM.
